# Assay results taken from US20240158446A1, “CYCLIC COMPOUND HAVING SELECTIVE INHIBITORY ACTION ON KRAS OVER HRAS AND NRAS” (CHUGAI SEIYAKU KABUSHIKI KAISHA, priority 2021, published 2024).
# Legend:
# [1] = tested on: human lung cancer strain NCI-H441; experiment: cells; conditions: NCI-H441, 96 h, read-out: NCI-H441 IC50 (nM), NCI-H441 cell proliferation, 4 days, CellTiter-Glo;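 also: cell proliferation inhibition after four days measured by CellTiter-Glo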
# [2] = target: GDP-bound HRAS wild-type protein (Homo sapiens, UniProt P01112); experiment: Binding to HRAS by surface plasmon resonance (SPR), Single Cycle Kinetics; conditions: ratio of KD for GDP-bound HRAS wild-type protein to KD for KRAS, SPR
# [3] = target: GDP-bound NRAS wild-type protein (Homo sapiens, UniProt P01111); experiment: Binding to NRAS by surface plasmon resonance (SPR), Single Cycle Kinetics; conditions: ratio of KD for GDP-bound NRAS wild-type protein to KD for KRAS, SPR
# Sequence of GDP-bound NRAS wild-type protein (P01111 whole entry): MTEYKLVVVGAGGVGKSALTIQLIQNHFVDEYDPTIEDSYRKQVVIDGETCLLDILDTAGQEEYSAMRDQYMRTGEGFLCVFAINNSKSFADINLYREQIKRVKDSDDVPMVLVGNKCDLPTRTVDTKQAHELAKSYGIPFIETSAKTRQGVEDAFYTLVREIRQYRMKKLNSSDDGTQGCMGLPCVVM
# Sequence of GDP-bound HRAS wild-type protein (P01112 whole entry): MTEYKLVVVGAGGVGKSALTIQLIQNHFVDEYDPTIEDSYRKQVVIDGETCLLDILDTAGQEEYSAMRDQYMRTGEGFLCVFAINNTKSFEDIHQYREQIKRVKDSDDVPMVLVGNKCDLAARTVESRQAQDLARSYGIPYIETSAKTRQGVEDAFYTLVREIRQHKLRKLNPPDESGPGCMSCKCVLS
Structure (SMILES),IC50 [1],HRAS/KRAS (KD ratio) [2],NRAS/KRAS (KD ratio) [3]
CC[C@H](C)[C@@H]1NC(=O)[C@H](CC2CC2)N(C)C(=O)C[C@@H](C(=O)N(C)C)N(C)C(=O)[C@H](C2CCCC2)N(C)C(=O)C2(CC(C)(C)C2)NC(=O)[C@@H]2C[C@@H](C)CN2C(=O)[C@H](CCc2ccc(C(F)(F)F)c(OC)c2)NC(=O)CN(C)C(=O)[C@H](Cc2ccc(C)cc2)N2CC/C=C\C[C@@H](C2=O)N(C)C(=O)CN(C)C1=O [PP1901],7.6 nM,B (a compound having 3 or more and less than 10 is denoted as B),A (a compound having 10 or more and less than 20 is denoted as A)
CCCN(C)C(=O)[C@@H]1CC(=O)N(C)[C@@H](C2CCC2)C(=O)N[C@@H]([C@@H](C)CC)C(=O)N(C)CC(=O)N(C)[C@H]2C/C=C\CCN(C2=O)[C@@H](Cc2ccc(C(F)(F)F)cc2)C(=O)N(C)CC(=O)N[C@@H](CCc2cc(F)c(C(F)(F)F)c(F)c2)C(=O)N2C[C@H](OCC)C[C@H]2C(=O)NC2(CCC2)C(=O)N(C)[C@@H](C2CCCC2)C(=O)N1C [PP1998],16.1 nM,B (a compound having 3 or more and less than 10 is denoted as B),A (a compound having 10 or more and less than 20 is denoted as A)
CCCN1C(=O)C[C@@H](C(=O)N(C)C)N(C)C(=O)[C@H](C2CCCC2)N(C)C(=O)C2(CCC2)NC(=O)[C@@H]2C[C@@H](OCC)CN2C(=O)[C@H](CCc2cc(F)c(C(F)(F)F)c(F)c2)NC(=O)CN(C)C(=O)[C@H](Cc2ccc(C(F)(F)F)cc2)N2CC/C=C\C[C@@H](C2=O)N(C)C(=O)CN(C)C(=O)[C@H]([C@@H](C)CC)NC(=O)[C@@H]1CC(C)C [PP1825],8 nM,A (a compound having 10 or more and less than 20 is denoted as A),A (a compound having 10 or more and less than 20 is denoted as A)
CCC[C@H]1C(=O)N[C@@H]([C@@H](C)CC)C(=O)N(C)CC(=O)N(C)[C@H]2C/C=C\CCN(C2=O)[C@@H](Cc2ccc(C)cc2)C(=O)N(C)CC(=O)N[C@@H](CCc2ccc(C(F)(F)F)c(Cl)c2)C(=O)N2C[C@H](C)C[C@H]2C(=O)NC2(CC(C)(C)C2)C(=O)N(C)[C@@H](C2CCCC2)C(=O)N(C)[C@H](C(=O)N(C)CC)CC(=O)N1C [PP1894],15.9 nM,A (a compound having 10 or more and less than 20 is denoted as A),A (a compound having 10 or more and less than 20 is denoted as A)
CCC[C@H]1C(=O)N[C@@H]([C@@H](C)CC)C(=O)N(C)CC(=O)N(C)[C@H]2C/C=C\CCN(C2=O)[C@@H](Cc2ccc(C)cc2)C(=O)N(C)CC(=O)N[C@@H](CCc2ccc(C(F)(F)F)c(OC)c2)C(=O)N2C[C@@H](C)C[C@H]2C(=O)NC2(CCC2)C(=O)N(C)[C@@H](C2CCCC2)C(=O)N(C)[C@H](C(=O)N(C)C)CC(=O)N1C [PP1857],5 nM,B (a compound having 3 or more and less than 10 is denoted as B),A (a compound having 10 or more and less than 20 is denoted as A)
CCCOC[C@H]1C(=O)N[C@@H]([C@@H](C)CC)C(=O)N(C)CC(=O)N(C)[C@H]2C/C=C\CCN(C2=O)[C@@H](Cc2ccc(C(F)(F)F)cc2)C(=O)N(C)CC(=O)N[C@@H](CCc2cc(F)c(C(F)(F)F)c(F)c2)C(=O)N2C[C@@H](C)C[C@H]2C(=O)NC2(CCC2)C(=O)N(C)[C@@H](C2CCCC2)C(=O)N(C)[C@H](C(=O)N(C)CCC)CC(=O)N1C [PP2008],15.2 nM,A (a compound having 10 or more and less than 20 is denoted as A),A (a compound having 10 or more and less than 20 is denoted as A)
CC[C@H](C)[C@@H]1NC(=O)[C@H](CC)N(C)C(=O)C[C@@H](C(=O)N(C)C)N(C)C(=O)[C@H](C2CCCC2)N(C)C(=O)C2(CC(C)(C)C2)NC(=O)[C@@H]2C[C@@H](C)CN2C(=O)[C@H](CCc2ccc(C(F)(F)F)c(Cl)c2)NC(=O)CN(C)C(=O)[C@H](Cc2ccc(C)cc2)N2CC/C=C\C[C@@H](C2=O)N(C)C(=O)CN(C)C1=O [PP1846],9.8 nM,B (a compound having 3 or more and less than 10 is denoted as B),A (a compound having 10 or more and less than 20 is denoted as A)
CC[C@H](C)[C@@H]1NC(=O)[C@H](CC2CC2)N(C)C(=O)C[C@@H](C(=O)N(C)CC)N(C)C(=O)[C@H](C2CCCC2)N(C)C(=O)C2(CC(C)(C)C2)NC(=O)[C@@H]2C[C@@H](C)CN2C(=O)[C@H](CCc2ccc(C(F)(F)F)c(OC)c2)NC(=O)CN(C)C(=O)[C@H](Cc2ccc(C)cc2)N2CC/C=C\C[C@@H](C2=O)N(C)C(=O)CN(C)C1=O [PP1902],12.5 nM,A (a compound having 10 or more and less than 20 is denoted as A),A (a compound having 10 or more and less than 20 is denoted as A)
CCC[C@H]1C(=O)N[C@@H]([C@@H](C)CC)C(=O)N(C)CC(=O)N(C)[C@H]2C/C=C\CCN(C2=O)[C@@H](Cc2ccc(C)cc2)C(=O)N(C)CC(=O)N[C@@H](CCc2ccc(C(F)(F)F)c(OC)c2)C(=O)N2C[C@H](C)C[C@H]2C(=O)NC2(CCC2)C(=O)N(C)[C@@H](C2CCCC2)C(=O)N(C)[C@H](C(=O)N(C)C)CC(=O)N1C [PP1859],28.8 nM,A (a compound having 10 or more and less than 20 is denoted as A),A (a compound having 10 or more and less than 20 is denoted as A)
CCCOC[C@H]1C(=O)N[C@@H]([C@@H](C)CC)C(=O)N(C)CC(=O)N(C)[C@H]2C/C=C\CCN(C2=O)[C@@H](Cc2ccc(C(F)(F)F)cc2)C(=O)N(C)CC(=O)N[C@@H](CCc2ccc(C(F)(F)F)c(OC)c2)C(=O)N2C[C@@H](C)C[C@H]2C(=O)NC2(CCC2)C(=O)N(C)[C@@H](C2CCCC2)C(=O)N(C)[C@H](C(=O)N(C)CCC)CC(=O)N1C [PP2028],17.5 nM,B (a compound having 3 or more and less than 10 is denoted as B),A (a compound having 10 or more and less than 20 is denoted as A)
CCO[C@@H]1C[C@H]2C(=O)NC3(CCC3)C(=O)N(C)[C@@H](C3CCCC3)C(=O)N(C)[C@H](C(=O)N(C)CC)CC(=O)N(C)[C@@H](CC(C)C)C(=O)N[C@@H]([C@@H](C)CC)C(=O)N(C)CC(=O)N(C)[C@H]3C/C=C\CCN(C3=O)[C@@H](Cc3ccc(C)cc3)C(=O)N(C)CC(=O)N[C@@H](CCc3ccc(C(F)(F)F)c(OC)c3)C(=O)N2C1 [PP1910],9.7 nM,B (a compound having 3 or more and less than 10 is denoted as B),A (a compound having 10 or more and less than 20 is denoted as A)
